The text below walks through data of US20180243190A1, “ACTIVATORS OF NRF2-DEPENDENT PHOTOPROTECTION AND RELATED USES THEREOF” (THE ARIZONA BOARD OF REGENTS ON BEHALF OF THE UNIVERSITY OF …, priority 2015, published 2018).

One assay concerns the target T1, KEAP1-C151S (Homo sapiens, UniProt Q14145, C151S).
T1 construct: expressed in transfected cells; host or cells: HaCaT human keratinocytes
Type of assay: cell-based. The conditions noted are these: SF 5 μM, As 5 μM, bixin 40 μM; 16 h. The text has this:
(§1) Since it has been shown previously that NRF2 activation by canonical inducers (including SF and tBHQ) depends on C (Cys)-151, a critical cysteine residue in KEAP1, the mechanistic involvement of KEAP1-C151 bixin-based NRF2 activation was examined. HaCaT cells were cotransfected with expression vectors for either KEAP1 wild type (KEAP1-WT) or a mutant KEAP1 (KEAP1-C151S; Cys-151 mutated to serine) along with ARE-firefly luciferase and Renilla luciferase reporters to assess NRF2 transcriptional activity (FIG. 3G). After exposure to SF (5 μM), As (sodium arsenite; 5 μM), or bixin (40 μM; all 16 h), NRF2 transcriptional activity was enhanced by all treatments in KEAP1-WT cells, whereas NRF2 activation by SF or bixin was abolished in KEAP1-C151S cells.
(§2) Transfection of cDNA was performed using Lipofectamine 3000 (Invitrogen) according to the manufacturer's instructions. Activation of NRF2 transcriptional activity was performed as previously published. Briefly, HaCaT cells were cotransfected with expression vectors for either KEAP1 wild type (KEAP1-WT) or KEAP1 with a mutation that generates a protein that contains a serine residue instead of a cysteine (KEAP1-C151S), along with NQO1-ARE firefly luciferase and Renilla luciferase reporters. At 24 h post-transfection, cells were left untreated or treated with SF (5 μM), As (5 μM), or bixin (40 μM) for 16 h. The cells were then lysed for analysis of the reporter gene activity using the Promega dual-luciferase reporter gene assay system.

The target of assay [1] is T2, KEAP1 wild type (KEAP1-WT) (Homo sapiens, UniProt Q14145).
T2 construct: expressed in transfected cells; host or cells: HaCaT human keratinocytes
Type of assay: cell-based. The conditions noted are these: SF 5 μM, As 5 μM, bixin 40 μM; 16 h.
From the text: as §1, §2

The test system of the next assay is HaCaT keratinocytes. Also on record: cytoprotection against 1O2-induced oxidative stress: dose or concentration left out as unconfirmed. The conditions noted are these: HaCaT.
Another assay concerns NRF2. Nature of the assay: Cell-based NRF2 ubiquitination assay. The conditions noted are these: HaCaT, bixin 40 μM or SF 5 μM with MG132 10 μM, 4 h. Also on record: species or system human. How it is done:
In order to test if bixin-based NRF2 activation occurs through inhibition of KEAP1-mediated ubiquitination, a cell-based ubiquitination assay was performed in HaCaT cells cotransfected with expression vectors for NRF2 and HA-tagged ubiquitin (HA-Ub) (FIG. 3F). To this end, cells were either exposed to bixin (40 μM) or sulforaphane (SF; 5 μM, positive control) or left untreated, combined with proteasome inhibition (MG132; 10 μM, 4 h).
Experiments were performed according to previously published procedures. Cells were harvested in sample buffer (50 mM Tris-HCl [pH 6.8], 2% sodium dodecyl sulfate (SDS), 10% glycerol, 100 mM dithiothreitol (DTT), and 0.1% bromophenol blue), boiled and sonicated. Total cell lysates were resolved by SDS-PAGE and subjected to immunoblot analyses with the indicated antibodies. For the ubiquitination assay, cells were cotransfected with expression vectors for NRF2 and HA-tagged ubiquitin (HA-Ub). Cells were left untreated or treated with either 5 μM sulforaphane (SF) or 40 μM bixin along with 10 μM MG132 for 4 h. Cells were harvested in buffer containing 2% SDS, 150 mM NaCl, 10 mM Tris-HCl (pH 8.0), and 1 mM DTT and boiled immediately. […] The relative intensity of the bands was quantified using the ChemiDoc CRS gel documentation system and Quantity One software (BioRad).

T2 sequence (Q14145 whole entry, species assumed): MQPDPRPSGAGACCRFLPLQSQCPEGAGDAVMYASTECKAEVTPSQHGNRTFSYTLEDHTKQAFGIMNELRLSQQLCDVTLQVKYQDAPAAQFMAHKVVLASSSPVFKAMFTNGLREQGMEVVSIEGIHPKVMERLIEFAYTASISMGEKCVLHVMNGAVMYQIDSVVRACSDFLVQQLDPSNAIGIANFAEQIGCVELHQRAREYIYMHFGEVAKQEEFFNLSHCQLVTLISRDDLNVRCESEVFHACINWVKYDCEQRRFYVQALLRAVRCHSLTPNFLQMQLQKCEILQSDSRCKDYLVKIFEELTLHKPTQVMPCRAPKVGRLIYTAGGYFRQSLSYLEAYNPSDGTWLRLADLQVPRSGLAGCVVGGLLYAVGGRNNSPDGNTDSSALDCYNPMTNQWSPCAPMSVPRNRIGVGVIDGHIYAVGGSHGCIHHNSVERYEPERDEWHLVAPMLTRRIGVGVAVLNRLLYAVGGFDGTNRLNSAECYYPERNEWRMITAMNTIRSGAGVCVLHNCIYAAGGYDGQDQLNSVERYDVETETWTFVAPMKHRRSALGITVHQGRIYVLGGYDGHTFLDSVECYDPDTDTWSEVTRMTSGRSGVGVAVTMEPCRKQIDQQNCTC
T1 sequence (Q14145 whole entry C151S): as the sequence (Q14145 whole entry, species assumed) above, with C151S counted along it
Procedure for HaCaT keratinocytes: Photodynamic induction of intracellular oxidative stress and its suppression by bixin pretreatment was analyzed by flow cytometry using 2′,7′-dichlorodihydrofluorescein diacetate (DCFH-DA) as a sensitive non-fluorescent precursor dye according to a published standard procedure [14]. HaCaT keratinocytes were pretreated with bixin (1 or 24 h) and then exposed to singlet oxygen generated by dye-sensitization as described earlier [14, 44]. In brief, toluidine blue 0 (TB) photosensitization was achieved using a ‘Sylvania 15 W Cool White’ light tube delivering visible light at an irradiance of 4.29 mW/cm^2. The irradiance in the visible region (400-700 nm) was determined using a spectroradiometer, Model 754 from Optronic Laboratories (Orlando, Fla.). Cells received visible radiation at a distance of 50 mm from the source through the polystyrene lids of cell culture dishes. For ^1O2 exposure, cells were washed with PBS and immediately exposed to the combined action of visible light (0.3 J/cm^2) and TB (3.3 μM) in PBS. Following 5 min incubation in the dark after irradiation, cells were washed with PBS. Cells were then incubated for 60 min in the dark (37° C., 5% CO2) with culture medium containing DCFH-DA (5 μg/mL final concentration). Cells were then washed with PBS, harvested by trypsinization, resuspended in 300 μl PBS, and analyzed by flow cytometry.

Take `O=[As]O` [As, sodium arsenite]: the “NRF2 activation in KEAP1-C151S cells” value on KEAP1-C151S is “equally effective”. Besides, in assay [1], the “NRF2 transcriptional activity in KEAP1-WT cells” value is “enhanced”.

For `[N-]=[N+]=[N-].[Na+]` [NaN3, reference compound], in the assay on HaCaT keratinocytes, the “cytoprotection against 1O2-induced oxidative stress” value was “active only if present during visible light-driven dye sensitization”.

Consider `C[S+]([O-])CCCCN=C=S` (stereo not drawn) [SF, sulforaphane], for which the “NRF2 activation in KEAP1-C151S cells” value on KEAP1-C151S was “abolished”. For the same compound, the “NRF2 transcriptional activity in KEAP1-WT cells” value in assay [1] is given as “enhanced”. In addition, the “NRF2-ubiquitination versus untreated control” value in the assay with NRF2 is “inhibitory effects”.
